From ChEMBL document CHEMBL5634117 (Eur J Med Chem, 2023)
Blank lines part the entries; values can stand above or below the compound they belong to. Active and inactive are the calls of the source. No cut-off for these calls is given here.

Experiments:
[1] = target: T1, Mitogen-activated protein kinase 8 (Homo sapiens, UniProt P45983); test: Inhibition of human JNK1 at 10 uM in presence of ATP relative to control
[2] = target: T2, Mitogen-activated protein kinase 9 (Homo sapiens, UniProt P45984); test: Inhibition of human JNK2 at 10 uM in presence of ATP relative to control
Target sequence in this assay (P45984 whole entry, looked up): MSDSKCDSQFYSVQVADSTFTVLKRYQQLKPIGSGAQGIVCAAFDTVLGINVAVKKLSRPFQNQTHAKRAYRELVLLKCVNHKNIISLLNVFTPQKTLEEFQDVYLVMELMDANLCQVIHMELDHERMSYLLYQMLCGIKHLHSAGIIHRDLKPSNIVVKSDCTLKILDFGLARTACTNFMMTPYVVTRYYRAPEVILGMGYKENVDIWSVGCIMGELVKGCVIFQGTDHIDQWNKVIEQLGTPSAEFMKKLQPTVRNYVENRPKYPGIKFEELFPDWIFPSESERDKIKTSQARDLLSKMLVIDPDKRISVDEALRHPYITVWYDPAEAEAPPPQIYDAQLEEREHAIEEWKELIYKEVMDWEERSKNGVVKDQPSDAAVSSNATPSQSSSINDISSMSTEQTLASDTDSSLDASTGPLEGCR

[3] = target: T3, Mitogen-activated protein kinase 10 (Homo sapiens, UniProt P53779); test: Inhibition of human JNK3 at 10 uM in presence of ATP relative to control
T3 sequence (P53779 whole entry): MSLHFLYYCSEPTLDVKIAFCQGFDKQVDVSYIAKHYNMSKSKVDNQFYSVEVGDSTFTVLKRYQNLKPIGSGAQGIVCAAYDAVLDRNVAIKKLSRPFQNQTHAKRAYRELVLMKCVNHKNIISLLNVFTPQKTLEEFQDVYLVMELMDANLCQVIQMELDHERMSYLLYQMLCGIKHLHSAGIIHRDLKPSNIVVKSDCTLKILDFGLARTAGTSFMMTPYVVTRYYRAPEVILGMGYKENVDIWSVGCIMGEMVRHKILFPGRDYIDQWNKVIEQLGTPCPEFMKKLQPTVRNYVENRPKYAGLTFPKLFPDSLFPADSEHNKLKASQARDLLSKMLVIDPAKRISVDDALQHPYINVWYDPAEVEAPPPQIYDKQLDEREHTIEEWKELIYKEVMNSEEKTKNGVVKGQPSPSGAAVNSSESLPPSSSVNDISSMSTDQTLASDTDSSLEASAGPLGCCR

[4] = target: T1, Mitogen-activated protein kinase 8; test: Inhibition of human JNK1 in presence of ATP
[5] = target: Voltage-gated inwardly rectifying potassium channel KCNH2 (Homo sapiens, UniProt Q12809); test: Inhibition of human ERG; type: toxicity
Voltage-gated inwardly rectifying potassium channel KCNH2, sequence (Q12809 whole entry): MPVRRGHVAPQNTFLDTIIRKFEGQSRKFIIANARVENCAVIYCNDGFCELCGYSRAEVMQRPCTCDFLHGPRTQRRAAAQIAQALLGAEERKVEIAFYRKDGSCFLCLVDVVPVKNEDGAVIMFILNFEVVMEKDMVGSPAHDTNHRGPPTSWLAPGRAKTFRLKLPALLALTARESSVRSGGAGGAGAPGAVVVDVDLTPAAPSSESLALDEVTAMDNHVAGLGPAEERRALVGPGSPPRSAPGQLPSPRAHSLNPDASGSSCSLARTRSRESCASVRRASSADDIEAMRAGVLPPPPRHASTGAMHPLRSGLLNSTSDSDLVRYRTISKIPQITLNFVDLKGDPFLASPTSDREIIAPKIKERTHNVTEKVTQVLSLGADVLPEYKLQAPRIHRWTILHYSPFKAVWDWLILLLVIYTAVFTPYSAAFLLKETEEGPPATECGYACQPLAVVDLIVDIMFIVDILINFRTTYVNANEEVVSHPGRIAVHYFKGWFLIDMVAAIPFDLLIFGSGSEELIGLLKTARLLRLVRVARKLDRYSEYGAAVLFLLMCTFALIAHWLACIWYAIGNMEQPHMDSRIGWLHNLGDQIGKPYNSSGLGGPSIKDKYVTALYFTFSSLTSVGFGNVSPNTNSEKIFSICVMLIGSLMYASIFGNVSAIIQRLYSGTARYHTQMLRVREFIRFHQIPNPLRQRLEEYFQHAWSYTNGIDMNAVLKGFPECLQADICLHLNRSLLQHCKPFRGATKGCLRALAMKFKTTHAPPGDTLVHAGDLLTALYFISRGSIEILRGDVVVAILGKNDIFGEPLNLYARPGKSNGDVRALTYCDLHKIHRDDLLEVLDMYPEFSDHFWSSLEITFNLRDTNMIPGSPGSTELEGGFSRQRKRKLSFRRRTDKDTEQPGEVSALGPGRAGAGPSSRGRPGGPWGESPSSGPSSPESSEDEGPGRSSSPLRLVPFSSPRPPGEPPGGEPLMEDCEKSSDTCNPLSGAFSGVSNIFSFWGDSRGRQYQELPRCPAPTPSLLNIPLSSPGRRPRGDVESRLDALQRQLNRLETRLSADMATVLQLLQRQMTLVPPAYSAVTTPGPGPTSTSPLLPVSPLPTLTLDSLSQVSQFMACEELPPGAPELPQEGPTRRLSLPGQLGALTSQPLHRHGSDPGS

[6] = target: T2, Mitogen-activated protein kinase 9; test: Inhibition of human JNK2 in presence of ATP
Target sequence in this assay (P45984 whole entry): as the sequence (P45984 whole entry, looked up) above

[7] = target: T3, Mitogen-activated protein kinase 10; test: Inhibition of human JNK3 in presence of ATP
K562 [8] = test: Induction of cell cycle arrest in human K562 cells assessed as accumulation of cells at G2/M phase at 1.25 uM measured after 24 hrs by PI staining based flow cytometry analysis (reference value: 25.62%); type: functional
K562 [9] = test: Induction of cell cycle arrest in human K562 cells assessed as accumulation of cells at G2/M phase at 2.5 uM measured after 24 hrs by PI staining based flow cytometry analysis (reference value: 25.62%); type: functional
K562 [10] = test: Induction of cell cycle arrest in human K562 cells assessed as accumulation of cells at G2/M phase at 5 uM measured after 24 hrs by PI staining based flow cytometry analysis (reference value: 25.62%); type: functional
K562 [11] = test: Induction of cell cycle arrest in human K562 cells assessed as accumulation of cells at S phase at 1.25 uM measured after 24 hrs by PI staining based flow cytometry analysis (reference value: 24.75%); type: functional
K562 [12] = test: Induction of cell cycle arrest in human K562 cells assessed as accumulation of cells at S phase at 2.5 uM measured after 24 hrs by PI staining based flow cytometry analysis (reference value: 24.75%); type: functional
K562 [13] = test: Induction of cell cycle arrest in human K562 cells assessed as accumulation of cells at S phase at 5 uM measured after 24 hrs by PI staining based flow cytometry analysis (reference value: 24.75%); type: functional
K562 [14] = test: Induction of cell cycle arrest in human K562 cells assessed as accumulation of cells at G0/G1 phase at 1.25 uM measured after 24 hrs by PI staining based flow cytometry analysis (reference value: 46.72%); type: functional
K562 [15] = test: Induction of cell cycle arrest in human K562 cells assessed as accumulation of cells at G0/G1 phase at 2.5 uM measured after 24 hrs by PI staining based flow cytometry analysis (reference value: 46.72%); type: functional
K562 [16] = test: Induction of cell cycle arrest in human K562 cells assessed as accumulation of cells at G0/G1 phase at 5 uM measured after 24 hrs by PI staining based flow cytometry analysis (reference value: 46.72%); type: functional
K562 [17] = test: Induction of cell cycle arrest in human K562 cells assessed as accumulation of cells at SubG1 phase at 1.25 uM measured after 24 hrs by PI staining based flow cytometry analysis (reference value: 2.21%); type: functional
K562 [18] = test: Induction of cell cycle arrest in human K562 cells assessed as accumulation of cells at SubG1 phase at 2.5 uM measured after 24 hrs by PI staining based flow cytometry analysis (reference value: 2.21%); type: functional
K562 [19] = test: Induction of cell cycle arrest in human K562 cells assessed as accumulation of cells at SubG1 phase at 5 uM measured after 24 hrs by PI staining based flow cytometry analysis (reference value: 2.21%); type: functional
K562 [20] = test: Induction of apoptosis in human K562 cells assessed as early apoptotic cells at 1.25 uM incubated for 24 hrs by annexinV and propidium iodide staining based flow cytometry analysis (reference value: 1.17%); type: functional
K562 [21] = test: Induction of apoptosis in human K562 cells assessed as early apoptotic cells at 2.5 uM incubated for 24 hrs by annexinV and propidium iodide staining based flow cytometry analysis (reference value: 1.17%); type: functional
K562 [22] = test: Induction of apoptosis in human K562 cells assessed as early apoptotic cells at 5 uM incubated for 24 hrs by annexinV and propidium iodide staining based flow cytometry analysis (reference value: 1.17%); type: functional
K562 [23] = test: Induction of apoptosis in human K562 cells assessed as late apoptotic cells at 1.25 uM incubated for 24 hrs by annexinV and propidium iodide staining based flow cytometry analysis (reference value: 0.82%); type: functional
K562 [24] = test: Induction of apoptosis in human K562 cells assessed as late apoptotic cells at 2.5 uM incubated for 24 hrs by annexinV and propidium iodide staining based flow cytometry analysis (reference value: 0.82%); type: functional
K562 [25] = test: Induction of apoptosis in human K562 cells assessed as late apoptotic cells at 5 uM incubated for 24 hrs by annexinV and propidium iodide staining based flow cytometry analysis (reference value: 0.82%); type: functional
K562 [26] = test: Induction of autophagy in human K562 cells assessed as increase in beclin-1 level at 2.5 to 5 uM measured after 24 hrs by Western blotting analysis; type: functional, cell-based; conditions: dose 2.5-5 µM
[27] = target: T1, Mitogen-activated protein kinase 8; test: Inhibition of JNK1 (unknown origin) expressed in HEK293 cells assessed as target engagement incubated for 1 hr by NanoBRET assay; type: cell-based
Cytochrome P450 2D6 = Cytochrome P450 2D6 (Homo sapiens, UniProt P10635); test: Inhibition of CYP2D6 (unknown origin) using vivid EOMCC as substrate; type: ADME
Cytochrome P450 2D6, sequence (P10635 whole entry): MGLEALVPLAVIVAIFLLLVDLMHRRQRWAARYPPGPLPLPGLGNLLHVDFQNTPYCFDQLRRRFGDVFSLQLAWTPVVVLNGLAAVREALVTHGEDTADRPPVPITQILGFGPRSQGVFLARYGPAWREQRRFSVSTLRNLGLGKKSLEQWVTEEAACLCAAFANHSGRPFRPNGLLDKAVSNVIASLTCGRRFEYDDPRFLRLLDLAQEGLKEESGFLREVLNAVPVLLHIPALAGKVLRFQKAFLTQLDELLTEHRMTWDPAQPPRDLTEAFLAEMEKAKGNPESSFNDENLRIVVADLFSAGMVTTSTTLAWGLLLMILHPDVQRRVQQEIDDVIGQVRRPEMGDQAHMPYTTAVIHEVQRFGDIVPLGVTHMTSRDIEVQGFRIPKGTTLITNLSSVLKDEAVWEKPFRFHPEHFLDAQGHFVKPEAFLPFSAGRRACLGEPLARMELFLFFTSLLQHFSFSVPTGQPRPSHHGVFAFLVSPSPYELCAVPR

Cytochrome P450 3A4 = Cytochrome P450 3A4 (Homo sapiens, UniProt P08684); test: Inhibition of CYP3A4 (unknown origin) using vivid BOMCC as substrate; type: ADME
Cytochrome P450 3A4, sequence (P08684 whole entry): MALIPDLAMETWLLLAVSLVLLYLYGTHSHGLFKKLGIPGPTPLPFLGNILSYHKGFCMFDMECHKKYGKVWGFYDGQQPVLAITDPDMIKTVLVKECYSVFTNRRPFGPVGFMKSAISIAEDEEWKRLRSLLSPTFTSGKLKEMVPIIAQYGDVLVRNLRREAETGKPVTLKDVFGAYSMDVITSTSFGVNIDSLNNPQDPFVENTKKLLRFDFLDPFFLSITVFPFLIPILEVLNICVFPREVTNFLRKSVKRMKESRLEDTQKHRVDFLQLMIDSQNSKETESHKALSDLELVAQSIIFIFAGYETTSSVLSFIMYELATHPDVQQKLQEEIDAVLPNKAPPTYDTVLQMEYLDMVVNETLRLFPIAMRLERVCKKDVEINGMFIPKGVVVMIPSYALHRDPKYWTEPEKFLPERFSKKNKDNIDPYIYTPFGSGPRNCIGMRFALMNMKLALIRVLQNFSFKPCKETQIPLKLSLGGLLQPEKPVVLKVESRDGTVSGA

T1 sequence (P45983 whole entry): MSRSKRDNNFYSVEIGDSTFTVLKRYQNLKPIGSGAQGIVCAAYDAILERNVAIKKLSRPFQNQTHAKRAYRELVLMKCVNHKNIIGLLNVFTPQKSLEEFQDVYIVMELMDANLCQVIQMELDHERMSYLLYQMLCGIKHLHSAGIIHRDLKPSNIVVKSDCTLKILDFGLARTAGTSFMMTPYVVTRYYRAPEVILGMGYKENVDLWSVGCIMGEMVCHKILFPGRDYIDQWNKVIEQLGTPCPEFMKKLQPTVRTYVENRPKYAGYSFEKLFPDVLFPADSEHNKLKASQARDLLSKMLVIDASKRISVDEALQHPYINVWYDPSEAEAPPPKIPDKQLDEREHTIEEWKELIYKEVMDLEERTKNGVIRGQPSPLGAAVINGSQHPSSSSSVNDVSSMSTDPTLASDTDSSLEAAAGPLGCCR

inhibition [1]: 4.68%
SMILES: COc1cccc(-c2nn(C(C)(C)C)cc2-c2ccnc(NCCNS(=O)(=O)c3ccc(C)cc3)c2)c1

inhibition [1]: 9.82%
SMILES: COc1ccc(S(=O)(=O)NCCNc2cc(-c3cn(C(C)(C)C)nc3-c3cccc(OC)c3)ccn2)cc1

inhibition [1]: 90.6%
inhibition [2]: 94.4%
inhibition [3]: 96.2%
IC50 [4]: 55.8 nM
SMILES: COc1ccc(S(=O)(=O)NCCNc2cc(-c3cn(C(C)(C)C)nc3-c3cccc(O)c3)ccn2)cc1

inhibition [1]: 86.4%
SMILES: CC(C)(C)n1cc(-c2ccnc(NCCNS(=O)(=O)c3cccc(F)c3)c2)c(-c2cccc(O)c2)n1

inhibition [1]: 98.4%
inhibition [2]: 98.5%
inhibition [3]: 98.2%
IC50 [4]: 6.81 nM
SMILES: CC(C)(C)n1cc(-c2ccnc(NCCCNS(=O)(=O)c3cccc(F)c3)c2)c(-c2cccc(O)c2)n1

inhibition [1]: 78.7%
SMILES: CC(C)(C)n1cc(-c2ccnc(NCCNS(=O)(=O)c3ccc(Cl)cc3)c2)c(-c2cccc(O)c2)n1

inhibition [1]: 49.2%
SMILES: COc1ccc(S(=O)(=O)NCCCNc2cc(-c3cn(C(C)(C)C)nc3-c3cccc(OC)c3)ccn2)cc1

inhibition [1]: 73.7%
inhibition [2]: 57.7%
SMILES: COc1cccc(-c2nn(C(C)(C)C)cc2-c2ccnc(NCCCNS(=O)(=O)c3ccc(Br)cc3)c2)c1

inhibition [1]: 79.6%
inhibition [2]: 68.2%
SMILES: COc1cccc(-c2nn(C(C)(C)C)cc2-c2ccnc(NCCCNS(=O)(=O)c3ccc(Cl)cc3)c2)c1

SMILES: CCNC1CCNC1 (centres undefined)
IC50 [5]: 12.8 nM

inhibition [1]: 85.8%
SMILES: Cc1ccc(S(=O)(=O)NCCNc2cc(-c3cn(C(C)(C)C)nc3-c3cccc(O)c3)ccn2)cc1

inhibition [1]: 21.3%
SMILES: COc1cccc(-c2nn(C(C)(C)C)cc2-c2ccnc(NCCCNS(=O)(=O)c3cccc4ccccc34)c2)c1

inhibition [1]: 3.91%
SMILES: COc1cccc(-c2nn(C(C)(C)C)cc2-c2ccnc(NCCNS(=O)(=O)c3ccc(F)cc3)c2)c1

inhibition [1]: 66.6%
SMILES: CC(C)(C)n1cc(-c2ccnc(NCCNS(=O)(=O)c3ccc(C(F)(F)F)cc3)c2)c(-c2cccc(O)c2)n1

inhibition [1]: 0.99%
SMILES: COc1cccc(-c2nn(C(C)(C)C)cc2-c2ccnc(NCCNS(=O)(=O)c3ccc(Cl)cc3)c2)c1

inhibition [1]: 87.2%
SMILES: CC(C)(C)n1cc(-c2ccnc(NCCNS(=O)(=O)c3ccc(F)cc3)c2)c(-c2cccc(O)c2)n1

inhibition [1]: -6.18%
SMILES: COc1cccc(-c2nn(C(C)(C)C)cc2-c2ccnc(NCCNS(=O)(=O)c3ccc(Br)cc3)c2)c1

inhibition [1]: 81.8%
SMILES: CC(C)(C)n1cc(-c2ccnc(NCCNS(=O)(=O)c3ccccc3)c2)c(-c2cccc(O)c2)n1

inhibition [1]: 99.4%
inhibition [2]: 98.5%
inhibition [3]: 99.1%
IC50 [4]: 3.75 nM
IC50 [6]: 23.1 nM
IC50 [7]: 20.2 nM
SMILES: CC(C)(C)n1cc(-c2ccnc(NCCCNS(=O)(=O)c3ccccc3)c2)c(-c2cccc(O)c2)n1

inhibition [1]: 96.8%
inhibition [2]: 98.9%
inhibition [3]: 98.5%
IC50 [4]: 3.5 nM
IC50 [6]: 19.8 nM
IC50 [7]: 10.1 nM
SMILES: CC(C)(C)n1cc(-c2ccnc(NCCCNS(=O)(=O)c3ccc(F)cc3)c2)c(-c2cccc(O)c2)n1

inhibition [1]: 3.74%
SMILES: COc1cccc(-c2nn(C(C)(C)C)cc2-c2ccnc(NCCNS(=O)(=O)c3ccccc3)c2)c1

inhibition [1]: 41.4%
SMILES: COc1cccc(-c2nn(C(C)(C)C)cc2-c2ccnc(NCCCNS(=O)(=O)c3ccc(F)cc3)c2)c1

inhibition [1]: 29.9%
SMILES: COc1cccc(-c2nn(C(C)(C)C)cc2-c2ccnc(NCCCNS(=O)(=O)c3cccc(F)c3)c2)c1

inhibition [1]: 13.2%
SMILES: COc1cccc(-c2nn(C(C)(C)C)cc2-c2ccnc(NCCCNS(=O)(=O)c3ccc(C(F)(F)F)cc3)c2)c1

inhibition [1]: 63.7%
SMILES: CC(C)(C)n1cc(-c2ccnc(NCCNS(=O)(=O)c3cccc4ccccc34)c2)c(-c2cccc(O)c2)n1

inhibition [1]: 74%
SMILES: CC(C)(C)n1cc(-c2ccnc(NCCNS(=O)(=O)c3ccc(Br)cc3)c2)c(-c2cccc(O)c2)n1

inhibition [1]: 97%
inhibition [2]: 98.8%
inhibition [3]: 98.2%
IC50 [4]: 15.1 nM
SMILES: Cc1ccc(S(=O)(=O)NCCCNc2cc(-c3cn(C(C)(C)C)nc3-c3cccc(O)c3)ccn2)cc1

inhibition [1]: 37.8%
SMILES: COc1cccc(-c2nn(C(C)(C)C)cc2-c2ccnc(NCCCNS(=O)(=O)c3ccc(C)cc3)c2)c1

inhibition [1]: 99.6%
inhibition [2]: 98.5%
inhibition [3]: 98%
IC50 [4]: 1.81 nM
IC50 [6]: 12.7 nM
IC50 [7]: 10.5 nM
IC50 [27]: 2810 nM
IC50 (Cytochrome P450 2D6): 26.7 nM
IC50 (Cytochrome P450 3A4): 383 nM
SMILES: COc1ccc(S(=O)(=O)NCCCNc2cc(-c3cn(C(C)(C)C)nc3-c3cccc(O)c3)ccn2)cc1
Activity (K562 [8]): 45.33%
Activity (K562 [9]): 62.99%
Activity (K562 [10]): 98.97%
Activity (K562 [11]): 32.54%
Activity (K562 [12]): 29.83%
Activity (K562 [13]): 0.34%
Activity (K562 [14]): 19.83%
Activity (K562 [15]): 6.24%
Activity (K562 [16]): 0.17%
Activity (K562 [17]): 1.34%
Activity (K562 [18]): 0.34%
Activity (K562 [19]): 0.09%
Activity (K562 [20]): 1.89%
Activity (K562 [21]): 1.94%
Activity (K562 [22]): 2.14%
Activity (K562 [23]): 0.52%
Activity (K562 [24]): 0.73%
Activity (K562 [25]): 0.59%
Activity (K562 [26]): Active
IC50 [5]: 4820 nM

inhibition [1]: 38.8%
SMILES: COc1cccc(-c2nn(C(C)(C)C)cc2-c2ccnc(NCCCNS(=O)(=O)c3ccccc3)c2)c1
